ChEMBL document CHEMBL5512603, “Development of de-novo coronavirus 3-chymotrypsin-like protease (3CLpro) inhibitors since COVID-19 outbreak: A strategy to tackle challenges of persistent virus infection” (Eur J Med Chem, 2024)

Key:
[1] = biological target: T1, Replicase polyprotein 1ab (Severe acute respiratory syndrome coronavirus 2, UniProt P0DTD1); test: Inhibition of SARS-CoV-2 3CLp by mass spectrometry
[2] = biological target: T1, Replicase polyprotein 1ab; test: Inhibition of SARS-CoV-2 3CLp
[3] = biological target: Protein cereblon/Replicase polyprotein 1ab (Severe acute respiratory syndrome coronavirus 2, UniProt P0DTD1+Q96SW2); test: PROTAC activity at SARS-CoV-2 Main protease/CRBN E3 ligase (unknown origin)
Chain of Protein cereblon/Replicase polyprotein 1ab (Q96SW2 whole entry, other chains not shown): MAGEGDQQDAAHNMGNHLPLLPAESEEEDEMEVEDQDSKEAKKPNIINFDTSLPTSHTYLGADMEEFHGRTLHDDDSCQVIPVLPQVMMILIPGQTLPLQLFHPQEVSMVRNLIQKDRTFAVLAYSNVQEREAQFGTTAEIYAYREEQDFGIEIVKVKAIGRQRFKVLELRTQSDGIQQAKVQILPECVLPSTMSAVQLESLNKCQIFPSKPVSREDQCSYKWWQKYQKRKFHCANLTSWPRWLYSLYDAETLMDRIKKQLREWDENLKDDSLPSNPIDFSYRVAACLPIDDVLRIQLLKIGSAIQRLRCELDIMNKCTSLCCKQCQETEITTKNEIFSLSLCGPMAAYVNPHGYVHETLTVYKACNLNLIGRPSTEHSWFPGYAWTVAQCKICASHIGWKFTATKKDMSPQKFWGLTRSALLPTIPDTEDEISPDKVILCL

[4] = biological target: T1, Replicase polyprotein 1ab; test: Inhibition of SARS-CoV-2 3CLp using fluorescent substrate by FRET assay
[5] = biological target: T1, Replicase polyprotein 1ab; test: Inhibition of SARS-CoV-2 recombinant main protease; type: single protein
[6] = biological target: T1, Replicase polyprotein 1ab; test: Inhibition of 2019-nCoV-2 3CLp using fluorescent substrate by FRET assay

| Compound | IC50 [1] [nM] | IC50 [2] [nM] | EC50 [3] [nM] | also measured |
| --- | --- | --- | --- | --- |
| Cc1cncc(-n2c(=O)nc(Nc3cc4cn(C)nc4cc3Cl)n(Cc3cc(C#N)c(F)cc3C)c2=O)c1 | 35 |  |  |  |
| Cn1cc2cc(/N=c3\[nH]c(=O)n(Cc4cn(CCCCC(=O)Nc5cccc6c5C(=O)N(C5CCC(=O)NC5=O)C6)nn4)c(=O)n3Cc3cc(F)c(F)cc3F)c(Cl)cc2n1 (stereo not drawn) |  | < 100 | < 100 |  |
| C[C@H](NC(=O)[C@@H](c1cccnc1)N(C(=O)CCl)c1ccc(-c2ccccc2)cc1)c1ccccc1 |  |  |  | IC50 [4]: 50 nM |
| O=C(O)c1ccc(Nc2nc(=O)n(Cc3ccc[nH]c3=O)c(=O)n2Cc2cc(F)c(F)c(F)c2)cc1 | < 1000 |  |  |  |
| COc1cc(Cl)cc(-c2cc(-c3c[nH]c(=O)[nH]c3=O)cn(-c3cccnc3)c2=O)c1 |  |  |  | IC50 [5]: 1000 nM |
| Cn1cc2cc(/N=c3\[nH]c(=O)n(Cc4cn(CCOCC(=O)Nc5cccc6c5C(=O)N(C5CCC(=O)NC5=O)C6)nn4)c(=O)n3Cc3cc(F)c(F)cc3F)c(Cl)cc2n1 (stereo not drawn) |  | > 100 | < 100 |  |
| O=c1[nH]cc(-c2cc(-c3cc(Cl)cc(COc4ccccc4)c3)c(=O)n(-c3cccnc3)c2)c(=O)[nH]1 |  |  |  | IC50 [5]: 128 nM |
| O=c1[nH]cc(-c2cc(-c3cc(Cl)cc(COc4c(F)cccc4F)c3)c(=O)n(-c3cccnc3)c2)c(=O)[nH]1 |  |  |  | IC50 [5]: 36 nM |
| Cn1cc2cc(/N=c3\[nH]c(=O)n(Cc4cn(CCCCCC(=O)Nc5cccc6c5C(=O)N(C5CCC(=O)NC5=O)C6)nn4)c(=O)n3Cc3cc(F)c(F)cc3F)c(Cl)cc2n1 (stereo not drawn) |  | < 100 | < 100 |  |
| Cn1cc2cc(/N=c3\[nH]c(=O)n(Cc4cn(CCCCCCC(=O)Nc5cccc6c5C(=O)N(C5CCC(=O)NC5=O)C6)nn4)c(=O)n3Cc3cc(F)c(F)cc3F)c(Cl)cc2n1 (stereo not drawn) |  | > 100 | < 100 |  |
| CC(C)COc1cc(Cl)cc(-c2cc(-c3c[nH]c(=O)[nH]c3=O)cn(-c3cccnc3)c2=O)c1 |  |  |  | IC50 [5]: 190 nM |
| CCn1nnnc1Cn1c(=O)[nH]/c(=N\c2cc3cn(C)nc3cc2Cl)n(Cc2cc(F)c(F)cc2F)c1=O |  |  |  | IC50 [6]: 160 nM |
| Cn1cc2cc(/N=c3\[nH]c(=O)n(Cc4cn(CCOCCOCC(=O)Nc5cccc6c5C(=O)N(C5CCC(=O)NC5=O)C6=O)nn4)c(=O)n3Cc3cc(F)c(F)cc3F)c(Cl)cc2n1 (stereo not drawn) |  | < 100 | < 100 |  |
| Cn1cc2cc(/N=c3\[nH]c(=O)n(Cc4cn(CCCC(=O)Nc5cccc6c5C(=O)N(C5CCC(=O)NC5=O)C6)nn4)c(=O)n3Cc3cc(F)c(F)cc3F)c(Cl)cc2n1 (stereo not drawn) |  | > 100 | < 100 |  |
| O=c1[nH]cc(-c2cc(-c3cc(Cl)cc(OCCc4ccccc4)c3)c(=O)n(-c3cccnc3)c2)c(=O)[nH]1 |  |  |  | IC50 [5]: 37 nM |
| Cn1cc2cc(/N=c3\[nH]c(=O)n(Cc4cn(CCCCCCC(=O)Nc5cccc6c5C(=O)N(C5CCC(=O)NC5=O)C6=O)nn4)c(=O)n3Cc3cc(F)c(F)cc3F)c(Cl)cc2n1 (stereo not drawn) |  | < 100 | > 100 |  |
| CC(=O)NCCn1cc2cc(Nc3nc(=O)n(Cc4ccc[nH]c4=O)c(=O)n3Cc3cc(F)c(F)c(F)c3)c(Cl)cc2n1 | < 1000 |  |  |  |
| Cn1cc2cc(/N=c3\[nH]c(=O)n(Cc4cn(CCOCCOCC(=O)Nc5cccc6c5C(=O)N(C5CCC(=O)NC5=O)C6)nn4)c(=O)n3Cc3cc(F)c(F)cc3F)c(Cl)cc2n1 (stereo not drawn) |  | < 100 | < 100 |  |
| Cn1cnc(Cn2c(=O)cc(Nc3cc4cn(C)nc4cc3OC(F)(F)F)n(Cc3cc(F)c(F)cc3F)c2=O)n1 | 10 |  |  |  |

| Compound | IC50 [1] [nM] | IC50 [2] [nM] | EC50 [3] [nM] | also measured |
| --- | --- | --- | --- | --- |
| O=C1c2c(O)cc(O)c([Se][Se]c3c(O)cc(O)c4c3OC(c3cc(O)c(O)c(O)c3)C(O)C4=O)c2CC(c2cc(O)c(O)c(O)c2)C1O (stereo not drawn) |  |  |  | IC50 [4]: 810 nM |
| CCn1nncc1Cn1c(=O)[nH]/c(=N\c2cc3cn(C)nc3cc2Cl)n(Cc2cc(F)c(F)cc2F)c1=O |  |  |  | IC50 [6]: 123 nM |
| Cn1cc2cc(/N=c3\[nH]c(=O)n(Cc4cn(CCOCCOCCOCC(=O)Nc5cccc6c5C(=O)N(C5CCC(=O)NC5=O)C6)nn4)c(=O)n3Cc3cc(F)c(F)cc3F)c(Cl)cc2n1 (stereo not drawn) |  | > 100 | < 100 |  |
| O=c1[nH]cccc1Cn1c(=O)nc(Nc2cc3cn(C4CCOCC4)nc3cc2Cl)n(Cc2cc(F)c(F)c(F)c2)c1=O | < 1000 |  |  |  |
| Cn1cc2cc(/N=c3\[nH]c(=O)n(Cc4cn(CCCCC(=O)Nc5cccc6c5C(=O)N(C5CCC(=O)NC5=O)C6=O)nn4)c(=O)n3Cc3cc(F)c(F)cc3F)c(Cl)cc2n1 (stereo not drawn) |  | < 100 | < 100 |  |
| Cc1cc(Cn2c(Nc3cc4cn(C)nc4cc3Cl)cc(=O)n(Cc3ncn(C)n3)c2=O)c(F)cc1F | 12 |  |  |  |
| CC(=O)Nc1nc2cc(Cl)c(Nc3nc(=O)n(Cc4ncn(C)n4)c(=O)n3Cc3cc(F)c(F)c(Cl)c3)cc2s1 | < 1000 |  |  |  |
| Cn1cc2cc(/N=c3\[nH]c(=O)n(Cc4cn(CCOCC(=O)Nc5cccc6c5C(=O)N(C5CCC(=O)NC5=O)C6=O)nn4)c(=O)n3Cc3cc(F)c(F)cc3F)c(Cl)cc2n1 (stereo not drawn) |  | > 100 | < 100 |  |
| Cn1cc2cc(/N=c3\[nH]c(=O)n(Cc4cn(CCCC(=O)Nc5cccc6c5C(=O)N(C5CCC(=O)NC5=O)C6=O)nn4)c(=O)n3Cc3cc(F)c(F)cc3F)c(Cl)cc2n1 (stereo not drawn) |  | < 100 | < 100 |  |
| COCCCc1cc(Cl)cc(-c2cc(-c3c[nH]c(=O)[nH]c3=O)cn(-c3cccnc3)c2=O)c1 |  |  |  | IC50 [5]: 25 nM |
| Cn1cc2cc(/N=c3\[nH]c(=O)n(Cc4nnn[nH]4)c(=O)n3Cc3cc(F)c(F)cc3F)c(Cl)cc2n1 |  |  |  | IC50 [6]: 120 nM |
| CN(C)CCn1cc2cc(Nc3nc(=O)n(Cc4ccc[nH]c4=O)c(=O)n3Cc3cc(F)c(F)c(F)c3)c(Cl)cc2n1 | < 1000 |  |  |  |
| Cn1cc2cc(/N=c3\[nH]c(=O)n(Cc4cn(CCC(=O)Nc5cccc6c5C(=O)N(C5CCC(=O)NC5=O)C6)nn4)c(=O)n3Cc3cc(F)c(F)cc3F)c(Cl)cc2n1 (stereo not drawn) |  | > 100 | > 100 |  |
| Cn1cc2cc(/N=c3\[nH]c(=O)n(Cc4cn(CCCCCC(=O)Nc5cccc6c5C(=O)N(C5CCC(=O)NC5=O)C6=O)nn4)c(=O)n3Cc3cc(F)c(F)cc3F)c(Cl)cc2n1 (stereo not drawn) |  | < 100 | < 100 |  |
| C[C@H](NC(=O)[C@@H](c1cccnc1)N(C(=O)c1ccco1)c1ccc(C(C)(C)C)cc1)c1ccccc1 |  |  |  | IC50 [6]: 5700 nM |
| Cc1cccc(OCc2cc(Cl)cc(-c3cc(-c4c[nH]c(=O)[nH]c4=O)cn(-c4cccnc4)c3=O)c2)c1 |  |  |  | IC50 [5]: 110 nM |
| O=c1[nH]cc(-c2cc(-c3cc(Cl)cc(COc4cccc(F)c4)c3)c(=O)n(-c3cccnc3)c2)c(=O)[nH]1 |  |  |  | IC50 [5]: 37 nM |
| Cn1cc2cc(Nc3nc(=O)n(Cc4ccc[nH]c4=O)c(=O)n3Cc3cc(F)c(F)c(F)c3)c(Cl)cc2n1 | < 1000 |  |  |  |
| CCn1cc2cc(Nc3nc(=O)n(-c4cncc(Cl)c4)c(=O)n3Cc3cc(C#N)ccc3Cl)ccc2n1 | 355 |  |  |  |

| Compound | IC50 [1] [nM] | IC50 [2] [nM] | EC50 [3] [nM] | also measured |
| --- | --- | --- | --- | --- |
| Cn1cnc(Cn2c(=O)cc(Nc3cc4cn(C)nc4cc3C(F)(F)F)n(Cc3cc(Cl)c(Cl)cc3F)c2=O)n1 | 14 |  |  |  |
| COc1ccc(Nc2nc(=O)n(Cc3ccc[nH]c3=O)c(=O)n2Cc2cc(F)c(F)c(F)c2)cc1 | < 1000 |  |  |  |
| Cn1cnc(Cn2c(=O)cc(Nc3cc4cn(C)nc4cc3F)n(Cc3cc(Cl)c(F)cc3F)c2=O)n1 | 18 |  |  |  |
| Cc1ccccc1OCc1cc(Cl)cc(-c2cc(-c3c[nH]c(=O)[nH]c3=O)cn(-c3cccnc3)c2=O)c1 |  |  |  | IC50 [5]: 100 nM |
| Cn1cc2cc(/N=c3\[nH]c(=O)n(Cc4cn(CCCCCCCC(=O)Nc5cccc6c5C(=O)N(C5CCC(=O)NC5=O)C6=O)nn4)c(=O)n3Cc3cc(F)c(F)cc3F)c(Cl)cc2n1 (stereo not drawn) |  | > 100 | > 100 |  |
| CCn1cc2cc(Nc3nc(=O)n(-c4cncc(Cl)c4)c(=O)n3Cc3cc(C#N)ccc3C)ccc2n1 | 234 |  |  |  |
| Cn1cc2cc(/N=c3\[nH]c(=O)n(Cc4cn(CCC(=O)Nc5cccc6c5C(=O)N(C5CCC(=O)NC5=O)C6=O)nn4)c(=O)n3Cc3cc(F)c(F)cc3F)c(Cl)cc2n1 (stereo not drawn) |  | > 100 | > 100 |  |
| Cc1nc2cc(Br)c(Nc3nc(=O)n(Cc4ncn(C)n4)c(=O)n3Cc3cc(F)c(F)c(F)c3)cc2s1 | < 1000 |  |  |  |
| Cn1cnc(Cn2c(=O)nc(Nc3cc4sc(N)nc4cc3Cl)n(Cc3cc(F)c(F)c(Cl)c3)c2=O)n1 | < 1000 |  |  |  |
| O=c1[nH]cc(-c2cc(-c3cc(Cl)cc(COc4ccccc4F)c3)c(=O)n(-c3cccnc3)c2)c(=O)[nH]1 |  |  |  | IC50 [5]: 24 nM |
| N#Cc1ccccc1-c1cc(-c2cccc(Cl)c2)cn(-c2cccnc2)c1=O |  |  |  | IC50 [5]: 9990 nM |
| Cn1cnc(Cn2c(=O)cc(Nc3cc4cn(C)nc4cc3Cl)n(Cc3cc(F)c(F)cc3F)c2=O)n1 | 10 |  |  |  |
| Cn1cc2cc(/N=c3\[nH]c(=O)n(Cc4cn(CCCCCCCC(=O)Nc5cccc6c5C(=O)N(C5CCC(=O)NC5=O)C6)nn4)c(=O)n3Cc3cc(F)c(F)cc3F)c(Cl)cc2n1 (stereo not drawn) |  | > 100 | > 100 |  |
| CC(C)(O)Cn1cc2cc(Nc3nc(=O)n(Cc4ccc[nH]c4=O)c(=O)n3Cc3cc(F)c(F)c(F)c3)c(Cl)cc2n1 | < 1000 |  |  |  |
| COc1ccc(Nc2nc(=O)n(Cc3ccc[nH]c3=O)c(=O)n2Cc2cc(F)c(F)c(F)c2)c(OC)c1 | < 1000 |  |  |  |
| CCOC(=O)/C=C/C(=O)N(c1ccc(-c2ccccc2)cc1)[C@@H](C(=O)N[C@@H](C)c1ccccc1)c1cccnc1 |  |  |  | IC50 [4]: > 20000 nM |
| C=C(Cl)C(=O)N(c1ccc(-c2ccccc2)cc1)[C@@H](C(=O)N[C@@H](C)c1ccccc1)c1cccnc1 |  |  |  | IC50 [4]: 4220 nM |
| Cn1cnc(Cn2c(=O)nc(Nc3cc4sc(NCC(F)F)nc4cc3Cl)n(Cc3cc(F)c(F)c(F)c3)c2=O)n1 | < 1000 |  |  |  |
